Patent US8445468B2, “(20S,22E)-2-methylene-19-nor-22-ene-1α,25-dihydroxyvitamin D3” (Wisconsin Alumni Research Foundation, priority 2009, dated 2013)
Read-outs that look alike come from different tables or passages of the source.

Legend:
HL-60 cells = test: HL-60 differentiation (nitro blue tetrazolium reduction); assay type: cell-based, human; details: FIG. 2; for EC50: differentiation of HL-60 cells into monocytes, read-out: EC50, HL-60 cell differentiation
Description: The study drugs were dissolved in ethanol and the concentrations determined using UV spectrophotometry. Serial dilutions were prepared so that a range of drug concentrations could be tested without changing the final concentration of ethanol (≦0.2%) present in the cell cultures.
Human promyelocytic leukemia (HL60) cells were grown in RPMI-1640 medium containing 10% fetal bovine serum. The cells were incubated at 37° C. in the presence of 5% CO2.
HL60 cells were plated at 1.2×10^5 cells/ml. Eighteen hours after plating, cells in duplicate were treated with drug. Four days later, the cells were harvested and a nitro blue tetrazolium reduction assay was performed (Collins et al., 1979; J. Exp. Med. 149:969-974). The percentage of differentiated cells was determined by counting a total of 200 cells and recording the number that contained intracellular black-blue formazan deposits. Verification of differentiation to monocytic cells was determined by measuring phagocytic activity (data not shown).

[1] = system: 24-hydroxylase (24Ohase) gene promoter; test: In vitro transcription assay, luciferase reporter in ROS 17/2.8 (bone) cells; assay type: cell-based; details: FIG. 3; for EC50: ROS 17/2.8 cells, 16 h after dosing, read-out: EC50, transcriptional activity in bone cells (24-hydroxylase gene)
Description: Transcription activity was measured in ROS 17/2.8 (bone) cells that were stably transfected with a 24-hydroxylase (24Ohase) gene promoter upstream of a luciferase reporter gene (Arbour et al., 1998). Cells were given a range of doses. Sixteen hours after dosing the cells were harvested and luciferase activities were measured using a luminometer.
RLU=relative luciferase units.

vitamin D-deficient rats [2] = test: Bone calcium mobilization (serum calcium); assay type: in vivo, rat; details: FIG. 4; for serum calcium (bone calcium mobilization): 260 pmol/day ip for 4 consecutive days, rats on low calcium diet (0.02%); for bone calcium mobilization activity (in words): vitamin D-deficient rats, low calcium diet
Description: (§1) Male, weanling Sprague-Dawley rats were placed on Diet 11 (0.47% Ca) diet +AEK oil for one week followed by Diet 11 (0.02% Ca)+AEK oil for 3 weeks. The rats were then switched to a diet containing 0.47% Ca for one week followed by two weeks on a diet containing 0.02% Ca. Dose administration began during the last week on 0.02% calcium diet. Four consecutive ip doses were given approximately 24 hours apart. Twenty-four hours after the last dose, blood was collected from the severed neck and the concentration of serum calcium determined as a measure of bone calcium mobilization. The first 10 cm of the intestine was also collected for intestinal calcium transport analysis using the everted gut sac method.

vitamin D-deficient rats [3] = test: Intestinal calcium transport (everted gut sac method); assay type: in vivo, rat; details: FIG. 5
Description: as §1

[4] = target: T1, full-length recombinant rat vitamin D receptor (Rattus norvegicus, UniProt P13053); test: Vitamin D receptor binding, competition with [3H]-1,25(OH)2D3; details: FIG. 1
T1 construct: Full-length recombinant rat receptor was expressed in E. coli BL21 (DE3) Codon Plus RIL cells; histidine tag (C); made in house; host or cells: E. coli BL21 (DE3) Codon Plus RIL
T1 sequence (P13053 1-423): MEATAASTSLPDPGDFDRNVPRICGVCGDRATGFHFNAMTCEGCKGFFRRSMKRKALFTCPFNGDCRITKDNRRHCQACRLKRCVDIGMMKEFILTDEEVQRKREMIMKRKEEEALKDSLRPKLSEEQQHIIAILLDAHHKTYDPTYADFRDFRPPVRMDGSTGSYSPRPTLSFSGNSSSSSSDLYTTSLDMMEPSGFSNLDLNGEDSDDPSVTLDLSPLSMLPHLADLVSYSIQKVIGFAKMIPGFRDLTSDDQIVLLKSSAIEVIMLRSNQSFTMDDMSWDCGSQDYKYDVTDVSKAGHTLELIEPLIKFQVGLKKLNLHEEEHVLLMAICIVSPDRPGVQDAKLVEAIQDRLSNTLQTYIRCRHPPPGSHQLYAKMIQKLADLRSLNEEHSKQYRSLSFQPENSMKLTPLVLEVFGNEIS
Description: Full-length recombinant rat receptor was expressed in E. coli BL21 (DE3) Codon Plus RIL cells and purified to homogeneity using two different column chromatography systems. The first system was a nickel affinity resin that utilizes the C-terminal histidine tag on this protein. The protein that was eluted from this resin was further purified using ion exchange chromatography (S-Sepharose Fast Flow). Aliquots of the purified protein were quick frozen in liquid nitrogen and stored at −80° C. until use. For use in binding assays, the protein was diluted in TEDK50 (50 mM Tris, 1.5 mM EDTA, pH7.4, 5 mM DTT, 150 mM KCl) with 0.1% Chaps detergent. The receptor protein and ligand concentration were optimized such that no more than 20% of the added radiolabeled ligand was bound to the receptor.
Radiolabeled and unlabeled ligands were added to 100 mcl of the diluted protein at a final ethanol concentration of ≦10%, mixed and incubated overnight on ice to reach binding equilibrium. The following day, 100 mcl of hydroxylapatite slurry (50%) was added to each tube and mixed at 10-minute intervals for 30 minutes. […] Total binding was determined from the tubes containing only radiolabeled ligand.

Row | EC50 (HL-60 cells; Homo sapiens) | affinity to the nuclear vitamin D receptor compared to 1,25-(OH)2D3 (in words) ([4]; full length recombinant rat VDR) | Ki ([4]; full-length recombinant rat vitamin D receptor, read-out: Ki, competition with [3H]-1,25(OH)2D3 for binding to VDR) | Compound | EC50 (HL-60 cells) | EC50 [1] | serum calcium (bone calcium mobilization) (vitamin D-deficient rats [2]) | bone calcium mobilization activity (in words) (vitamin D-deficient rats [2]) | potency on HL-60 cell differentiation relative to 1,25(OH)2D3 (HL-60 cells; fold more potent than 1,25(OH)2D3) | intestinal calcium transport activity compared to 1,25(OH)2D3 (vitamin D-deficient rats [3]; 32 pmol/day for 4 consecutive days) | intestinal calcium transport, dose dependence (in words) (vitamin D-deficient rats [3]; vitamin D-deficient rats) | potency in increasing transcription of the 24-hydroxylase gene relative to 1,25(OH)2D3 ([1]; bone cells, fold more potent than 1,25(OH)2D3)
1 | – | – | – | C=C1/C(=C\C=C2/CCC[C@]3(C)[C@@H]([C@H](C)CCCC(C)(C)O)CC[C@@H]23)C[C@@H](O)C[C@@H]1O [1,25(OH)2D3, 1α,25-dihydroxyvitamin D3] | 2 nM | 0.2 nM | 6.1 mg/dL | increased serum calcium levels at all dosages | – | – | – | –
2 | 0.1 nM | same affinity | 0.06 nM | C=C1[C@H](O)CC(=C/C=C2\CCC[C@]3(C)[C@@H]([C@@H](C)/C=C/CC(C)(C)O)CC[C@@H]23)C[C@H]1O [Compound N-23, (20S,22E)-2-Methylene-19-nor-22-ene-1α,25-dihydroxyvitamin D3] | – | 0.02 nM | 6.8 mg/dL | slightly more bone calcium mobilization activity | about 10 times | less activity | dose dependent manner | about 10 times
